Test results taken from the kinase profiling compilation of Christmann-Franck et al. (2016).

Key:
Test in all cases: radiometric filter-binding kinase assay, Kinase HotSpot
Details in all cases: compound 0.5 µM; ATP 10 µM
ACVR1B (human) = ACVR1B (human) (UniProt P36896)
ADRBK2 (human) = ADRBK2 (human) (UniProt P35626)
BRSK2 (human) = BRSK2 (human) (UniProt Q8IWQ3)
CAMK2D (human) = CAMK2D (human) (UniProt Q13557)
CDK4 CCND1 (human) = CDK4 CCND1 (human) (UniProt P24385+P11802)
CDK5 CDK5R1 p35 (human) = CDK5 CDK5R1 p35 (human) (UniProt Q00535+Q15078)
CHEK1 (human) = CHEK1 (human) (UniProt O14757)
CLK4 (human) = CLK4 (human) (UniProt Q9HAZ1)
CSNK1D (human) = CSNK1D (human) (UniProt P48730)
DAPK2 (human) = DAPK2 (human) (UniProt Q9UIK4)
FGR (human) = FGR (human) (UniProt P09769)
FRK (human) = FRK (human) (UniProt P42685)
GRK6 (human) = GRK6 (human) (UniProt P43250)
GSK3B (human) = GSK3B (human) (UniProt P49841)
HIPK3 (human) = HIPK3 (human) (UniProt Q9H422)
IRAK4 (human) = IRAK4 (human) (UniProt Q9NWZ3)
JAK2 JH1 JH2 (human) = JAK2 JH1 JH2 (human) (UniProt O60674)
JAK3 JH1 JH2 (human) = JAK3 JH1 JH2 (human) (UniProt P52333)
MAP3K11 (human) = MAP3K11 (human) (UniProt Q16584)
MAP3K9 (human) = MAP3K9 (human) (UniProt P80192)
MAP4K4 (human) = MAP4K4 (human) (UniProt O95819)
MAPK14 (human) = MAPK14 (human) (UniProt Q16539)
MARK4 (human) = MARK4 (human) (UniProt Q96L34)
MKNK2 (human) = MKNK2 (human) (UniProt Q9HBH9)
NEK7 (human) = NEK7 (human) (UniProt Q8TDX7)
NLK (human) = NLK (human) (UniProt Q9UBE8)
NTRK1 (human) = NTRK1 (human) (UniProt P04629)
NTRK2 (human) = NTRK2 (human) (UniProt Q16620)
NUAK1 (human) = NUAK1 (human) (UniProt O60285)
PASK (human) = PASK (human) (UniProt Q96RG2)
PIM1 (human) = PIM1 (human) (UniProt P11309)
PIM2 (human) = PIM2 (human) (UniProt Q9P1W9)
PRKACA (human) = PRKACA (human) (UniProt P17612)
PRKD1 (human) = PRKD1 (human) (UniProt Q15139)
RAF1 (human) = RAF1 (human) (UniProt P04049)
RAF1 (human), sequence (P04049 whole entry, looked up): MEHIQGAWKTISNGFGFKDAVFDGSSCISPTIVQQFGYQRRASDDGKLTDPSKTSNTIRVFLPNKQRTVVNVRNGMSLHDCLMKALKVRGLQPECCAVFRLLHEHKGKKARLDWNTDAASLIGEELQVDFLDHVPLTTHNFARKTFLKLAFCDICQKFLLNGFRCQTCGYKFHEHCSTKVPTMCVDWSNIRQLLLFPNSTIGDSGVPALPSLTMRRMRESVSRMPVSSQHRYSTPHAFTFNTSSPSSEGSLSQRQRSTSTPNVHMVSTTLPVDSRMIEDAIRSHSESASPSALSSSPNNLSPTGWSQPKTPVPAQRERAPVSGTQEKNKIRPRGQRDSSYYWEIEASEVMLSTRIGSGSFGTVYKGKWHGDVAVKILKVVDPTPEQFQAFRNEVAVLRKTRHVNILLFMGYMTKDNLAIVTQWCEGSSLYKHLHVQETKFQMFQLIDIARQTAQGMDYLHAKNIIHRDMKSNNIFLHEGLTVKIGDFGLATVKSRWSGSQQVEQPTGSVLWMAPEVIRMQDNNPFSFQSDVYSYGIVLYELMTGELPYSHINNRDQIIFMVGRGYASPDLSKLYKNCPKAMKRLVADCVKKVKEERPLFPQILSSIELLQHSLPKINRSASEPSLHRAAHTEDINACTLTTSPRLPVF

SGK2 (human) = SGK2 (human) (UniProt Q9HBY8)
SRPK2 (human) = SRPK2 (human) (UniProt P78362)
STK16 (human) = STK16 (human) (UniProt O75716)
STK16 (human), sequence (O75716 whole entry, looked up): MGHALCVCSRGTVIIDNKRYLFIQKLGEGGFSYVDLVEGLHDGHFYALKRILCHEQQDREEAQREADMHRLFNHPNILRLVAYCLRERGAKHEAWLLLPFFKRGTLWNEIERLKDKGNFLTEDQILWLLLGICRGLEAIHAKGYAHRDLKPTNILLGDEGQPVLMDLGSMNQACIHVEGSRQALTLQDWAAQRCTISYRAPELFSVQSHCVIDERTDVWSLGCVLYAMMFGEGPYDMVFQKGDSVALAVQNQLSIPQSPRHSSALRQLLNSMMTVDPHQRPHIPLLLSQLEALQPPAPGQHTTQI

TSSK2 (human) = TSSK2 (human) (UniProt Q96PF2)
TSSK2 (human), sequence (Q96PF2 whole entry, looked up): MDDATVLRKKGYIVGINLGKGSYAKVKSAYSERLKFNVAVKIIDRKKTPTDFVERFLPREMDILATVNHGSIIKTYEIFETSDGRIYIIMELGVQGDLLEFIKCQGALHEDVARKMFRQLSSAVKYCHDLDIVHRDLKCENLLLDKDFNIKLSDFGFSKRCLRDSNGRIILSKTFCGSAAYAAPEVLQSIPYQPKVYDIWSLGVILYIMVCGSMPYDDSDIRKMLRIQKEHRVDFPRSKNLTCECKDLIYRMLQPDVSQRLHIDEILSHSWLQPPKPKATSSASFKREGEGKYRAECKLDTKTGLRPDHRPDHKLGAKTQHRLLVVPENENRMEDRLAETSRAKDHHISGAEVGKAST

TYRO3 (human) = TYRO3 (human) (UniProt Q06418)
TYRO3 (human), sequence (Q06418 whole entry, looked up): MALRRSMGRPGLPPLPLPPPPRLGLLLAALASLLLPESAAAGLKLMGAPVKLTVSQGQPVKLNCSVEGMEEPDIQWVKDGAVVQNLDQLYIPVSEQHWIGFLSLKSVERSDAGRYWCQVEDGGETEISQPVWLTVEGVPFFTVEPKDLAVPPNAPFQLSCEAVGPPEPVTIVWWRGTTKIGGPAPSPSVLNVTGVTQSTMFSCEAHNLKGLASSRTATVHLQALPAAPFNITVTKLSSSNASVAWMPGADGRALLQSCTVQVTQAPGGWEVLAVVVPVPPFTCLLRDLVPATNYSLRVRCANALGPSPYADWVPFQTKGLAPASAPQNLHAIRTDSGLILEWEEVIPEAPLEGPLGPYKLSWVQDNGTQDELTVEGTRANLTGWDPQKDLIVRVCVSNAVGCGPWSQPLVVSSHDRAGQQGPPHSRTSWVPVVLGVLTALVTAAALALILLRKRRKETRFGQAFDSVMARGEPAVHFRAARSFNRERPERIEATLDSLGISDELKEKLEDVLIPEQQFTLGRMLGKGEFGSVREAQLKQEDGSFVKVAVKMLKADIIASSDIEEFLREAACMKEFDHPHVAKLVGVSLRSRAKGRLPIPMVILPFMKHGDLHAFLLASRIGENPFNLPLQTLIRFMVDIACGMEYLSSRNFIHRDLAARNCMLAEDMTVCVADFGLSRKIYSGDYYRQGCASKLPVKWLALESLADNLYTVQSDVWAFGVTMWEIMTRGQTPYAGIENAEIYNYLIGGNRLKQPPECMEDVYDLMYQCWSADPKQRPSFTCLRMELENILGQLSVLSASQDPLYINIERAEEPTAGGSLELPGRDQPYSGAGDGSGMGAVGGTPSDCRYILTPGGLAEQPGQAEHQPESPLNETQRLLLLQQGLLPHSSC

ULK2 (human) = ULK2 (human) (UniProt Q8IYT8)
ULK2 (human), sequence (Q8IYT8 whole entry, looked up): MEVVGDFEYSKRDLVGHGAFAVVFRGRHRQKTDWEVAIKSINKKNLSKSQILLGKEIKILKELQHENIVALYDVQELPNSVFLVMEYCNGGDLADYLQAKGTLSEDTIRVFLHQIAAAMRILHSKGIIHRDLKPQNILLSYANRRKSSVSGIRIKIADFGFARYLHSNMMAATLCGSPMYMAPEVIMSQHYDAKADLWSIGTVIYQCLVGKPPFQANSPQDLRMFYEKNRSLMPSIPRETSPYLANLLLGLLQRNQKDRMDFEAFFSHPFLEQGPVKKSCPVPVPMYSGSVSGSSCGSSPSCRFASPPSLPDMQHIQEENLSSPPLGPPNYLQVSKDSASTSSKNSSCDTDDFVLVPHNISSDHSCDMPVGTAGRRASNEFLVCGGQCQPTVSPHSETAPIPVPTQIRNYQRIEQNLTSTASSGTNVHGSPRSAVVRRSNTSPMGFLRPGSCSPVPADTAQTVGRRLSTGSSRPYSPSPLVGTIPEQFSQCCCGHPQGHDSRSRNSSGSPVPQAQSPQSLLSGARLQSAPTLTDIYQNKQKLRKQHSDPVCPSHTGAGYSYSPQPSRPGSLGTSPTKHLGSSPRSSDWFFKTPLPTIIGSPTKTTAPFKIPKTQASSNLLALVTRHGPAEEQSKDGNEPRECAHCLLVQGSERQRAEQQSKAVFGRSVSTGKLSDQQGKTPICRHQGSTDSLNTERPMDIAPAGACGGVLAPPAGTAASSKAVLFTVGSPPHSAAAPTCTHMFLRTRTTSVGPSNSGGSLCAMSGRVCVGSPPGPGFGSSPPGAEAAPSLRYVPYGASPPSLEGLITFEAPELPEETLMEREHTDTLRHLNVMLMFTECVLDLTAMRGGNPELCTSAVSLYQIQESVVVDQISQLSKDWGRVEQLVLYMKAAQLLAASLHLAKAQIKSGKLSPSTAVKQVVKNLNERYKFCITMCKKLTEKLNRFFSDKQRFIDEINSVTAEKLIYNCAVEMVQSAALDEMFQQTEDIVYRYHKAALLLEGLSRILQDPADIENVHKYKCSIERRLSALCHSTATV

WNK2 (human) = WNK2 (human) (UniProt Q9Y3S1)

ACVR1B (human), sequence (P36896 whole entry, looked up): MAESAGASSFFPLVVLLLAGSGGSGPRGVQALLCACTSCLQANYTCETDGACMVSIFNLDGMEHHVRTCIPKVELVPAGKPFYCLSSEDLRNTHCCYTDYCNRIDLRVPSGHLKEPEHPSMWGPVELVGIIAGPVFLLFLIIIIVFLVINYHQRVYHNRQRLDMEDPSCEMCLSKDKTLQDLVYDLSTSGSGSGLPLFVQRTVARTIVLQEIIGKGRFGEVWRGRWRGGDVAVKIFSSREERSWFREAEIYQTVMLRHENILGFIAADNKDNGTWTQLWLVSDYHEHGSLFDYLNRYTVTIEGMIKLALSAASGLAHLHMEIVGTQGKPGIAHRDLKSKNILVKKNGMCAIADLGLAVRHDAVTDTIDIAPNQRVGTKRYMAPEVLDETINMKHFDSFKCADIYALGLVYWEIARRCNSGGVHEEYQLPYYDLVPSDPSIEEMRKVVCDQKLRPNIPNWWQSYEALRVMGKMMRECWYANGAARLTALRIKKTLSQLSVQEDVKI
CAMK2D (human), sequence (Q13557 whole entry, looked up): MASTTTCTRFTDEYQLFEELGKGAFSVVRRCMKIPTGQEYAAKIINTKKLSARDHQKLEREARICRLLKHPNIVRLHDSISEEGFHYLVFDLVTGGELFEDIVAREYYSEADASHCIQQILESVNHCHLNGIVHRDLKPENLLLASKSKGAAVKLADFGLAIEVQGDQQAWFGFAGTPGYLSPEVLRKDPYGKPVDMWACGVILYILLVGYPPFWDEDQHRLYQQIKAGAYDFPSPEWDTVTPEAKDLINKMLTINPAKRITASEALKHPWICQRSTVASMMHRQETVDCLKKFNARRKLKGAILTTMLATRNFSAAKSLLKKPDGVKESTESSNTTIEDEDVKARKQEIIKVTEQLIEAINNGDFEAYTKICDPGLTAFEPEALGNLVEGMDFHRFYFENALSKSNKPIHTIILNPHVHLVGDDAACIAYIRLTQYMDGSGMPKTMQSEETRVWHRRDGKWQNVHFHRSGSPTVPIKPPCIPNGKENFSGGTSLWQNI
CDK4 CCND1 (human), sequence (P11802 whole entry, looked up): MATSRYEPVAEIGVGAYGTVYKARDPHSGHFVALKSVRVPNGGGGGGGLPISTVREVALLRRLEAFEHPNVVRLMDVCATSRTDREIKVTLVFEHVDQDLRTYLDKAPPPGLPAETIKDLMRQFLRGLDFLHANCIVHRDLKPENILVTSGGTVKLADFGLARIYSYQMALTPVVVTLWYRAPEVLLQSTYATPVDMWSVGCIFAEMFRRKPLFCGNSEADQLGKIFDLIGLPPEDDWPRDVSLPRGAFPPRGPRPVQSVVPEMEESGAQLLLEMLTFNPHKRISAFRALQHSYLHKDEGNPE
CDK4 CCND1 (human), sequence (P24385 whole entry, looked up): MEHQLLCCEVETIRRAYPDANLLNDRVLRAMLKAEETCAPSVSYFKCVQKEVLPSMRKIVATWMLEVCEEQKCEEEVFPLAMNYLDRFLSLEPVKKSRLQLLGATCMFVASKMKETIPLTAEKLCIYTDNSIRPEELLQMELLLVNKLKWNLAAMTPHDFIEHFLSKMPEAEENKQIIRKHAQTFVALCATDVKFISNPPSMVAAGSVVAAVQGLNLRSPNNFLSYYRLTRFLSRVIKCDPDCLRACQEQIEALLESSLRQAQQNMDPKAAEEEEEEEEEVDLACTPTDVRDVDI

N#CCCc1ccc2c(c1)-c1[nH]c3ccc([N+](=O)[O-])cc3c1CC(=O)N2
residual activity (ACVR1B (human)): 110% | residual activity (ADRBK2 (human)): 97.1% | residual activity (BRSK2 (human)): 42% | residual activity (CAMK2D (human)): 57.8% | residual activity (CDK4 CCND1 (human)): 11.8% | residual activity (CDK5 CDK5R1 p35 (human)): 2.6% | residual activity (CHEK1 (human)): 45.1% | residual activity (CLK4 (human)): 77.1% | residual activity (CSNK1D (human)): 97.4% | residual activity (DAPK2 (human)): 96.5% | residual activity (FGR (human)): 31% | residual activity (FRK (human)): 92.7% | residual activity (GRK6 (human)): 91.5% | residual activity (GSK3B (human)): 2.71% | residual activity (HIPK3 (human)): 104% | residual activity (IRAK4 (human)): 155% | residual activity (JAK2 JH1 JH2 (human)): 93% | residual activity (JAK3 JH1 JH2 (human)): 101% | residual activity (MAP3K11 (human)): 18.4% | residual activity (MAP3K9 (human)): 18.2% | residual activity (MAP4K4 (human)): 6.82% | residual activity (MAPK14 (human)): 91.8% | residual activity (MARK4 (human)): 62.5% | residual activity (MKNK2 (human)): 87.7% | residual activity (NEK7 (human)): 87.4% | residual activity (NLK (human)): 89.7% | residual activity (NTRK1 (human)): 115% | residual activity (NTRK2 (human)): 86.4% | residual activity (NUAK1 (human)): 14.1% | residual activity (PASK (human)): 96.9% | residual activity (PIM1 (human)): 93.6% | residual activity (PIM2 (human)): 104% | residual activity (PRKACA (human)): 87.6% | residual activity (PRKD1 (human)): 87.5% | residual activity (RAF1 (human)): 104% | residual activity (SGK2 (human)): 114% | residual activity (SRPK2 (human)): 109% | residual activity (STK16 (human)): 87% | residual activity (TSSK2 (human)): 78.7% | residual activity (TYRO3 (human)): 94.8% | residual activity (ULK2 (human)): 73.1% | residual activity (WNK2 (human)): 112%

CCOc1cc2ncnc(Nc3cccc(Br)c3)c2cc1OCC
residual activity (ACVR1B (human)): 101% | residual activity (ADRBK2 (human)): 93.8% | residual activity (BRSK2 (human)): 94% | residual activity (CAMK2D (human)): 87% | residual activity (CDK4 CCND1 (human)): 94.2% | residual activity (CDK5 CDK5R1 p35 (human)): 99.2% | residual activity (CHEK1 (human)): 115% | residual activity (CLK4 (human)): 83.1% | residual activity (CSNK1D (human)): 103% | residual activity (DAPK2 (human)): 103% | residual activity (FGR (human)): 61.9% | residual activity (FRK (human)): 85.9% | residual activity (GRK6 (human)): 96% | residual activity (GSK3B (human)): 96.8% | residual activity (HIPK3 (human)): 102% | residual activity (IRAK4 (human)): 102% | residual activity (JAK2 JH1 JH2 (human)): 99% | residual activity (JAK3 JH1 JH2 (human)): 102% | residual activity (MAP3K11 (human)): 93% | residual activity (MAP3K9 (human)): 96.1% | residual activity (MAP4K4 (human)): 67% | residual activity (MAPK14 (human)): 87.5% | residual activity (MARK4 (human)): 99.2% | residual activity (MKNK2 (human)): 34.3% | residual activity (NEK7 (human)): 98.6% | residual activity (NLK (human)): 95.9% | residual activity (NTRK1 (human)): 89.6% | residual activity (NTRK2 (human)): 105% | residual activity (NUAK1 (human)): 94% | residual activity (PASK (human)): 92.3% | residual activity (PIM1 (human)): 92.1% | residual activity (PIM2 (human)): 98.9% | residual activity (PRKACA (human)): 98.9% | residual activity (PRKD1 (human)): 95.4% | residual activity (RAF1 (human)): 91.6% | residual activity (SGK2 (human)): 106% | residual activity (SRPK2 (human)): 95.6% | residual activity (STK16 (human)): 98.4% | residual activity (TSSK2 (human)): 104% | residual activity (TYRO3 (human)): 92.2% | residual activity (ULK2 (human)): 82.8% | residual activity (WNK2 (human)): 95.8%
